Test results from ChEMBL document CHEMBL1154822, “Synthesis and antiproliferative activity of 7-azaindirubin-3'-oxime, a 7-aza isostere of the natural indirubin pharmacophore” (J Nat Prod, 2009).

Assays:
Type in all cases: functional
HCC 2998 [1] = assay: Cytotoxicity against human HCC2998 cells assessed as cell growth at 10 uM after 48 hrs by MTT assay; conditions: HCC 2998, 48 h, read-out: Activity
ACHN [2] = assay: Cytotoxicity against human ACHN cells after 1 to 11 days by MTT assay
HOP-92 [3] = assay: Cytotoxicity against human HOP92 cells assessed as cell growth at 100 uM after 1 to 11 days by MTT assay; conditions: read-out: Activity
A549 [4] = assay: Cytotoxicity against human A549 cells after 1 to 11 days by MTT assay
[5] = Cytotoxicity against human Hs 578T cells assessed as cell growth at 100 uM after 1 to 11 days by MTT assay; conditions: read-out: Activity
M14 = assay: Cytotoxicity against human M14 cells after 1 to 11 days by MTT assay
[6] = Cytotoxicity against human Hs 578T cells assessed as cell growth at 10 uM after 1 to 11 days by MTT assay; conditions: read-out: Activity
SNB-75 [7] = assay: Cytotoxicity against human SNB75 cells assessed as cell growth at 1 uM after 1 to 11 days by MTT assay; conditions: read-out: Activity
Malme-3M = assay: Cytotoxicity against human MALME-3M cells assessed as cell growth at 100 uM after 1 to 11 days by MTT assay; conditions: read-out: Activity
COLO 205 [8] = assay: Cytotoxicity against human COLO205 cells assessed as cell growth at 100 uM after 1 to 11 days by MTT assay; conditions: read-out: Activity
HCC 2998 [9] = assay: Cytotoxicity against human HCC2998 cells assessed as cell growth at 0.1 uM after 1 to 11 days by MTT assay; conditions: read-out: Activity
786-0 = assay: Cytotoxicity against human 786-0 cells assessed as cell growth at 1 mM after 1 to 11 days by MTT assay; conditions: read-out: Activity
IGROV-1 = assay: Cytotoxicity against human IGROV1 cells assessed as cell growth at 1 mM after 1 to 11 days by MTT assay; conditions: read-out: Activity
A549 [10] = assay: Cytotoxicity against human A549 cells assessed as cell growth at 1 mM after 1 to 11 days by MTT assay; conditions: read-out: Activity
ACHN [11] = assay: Cytotoxicity against human ACHN cells assessed as cell growth at 100 uM after 1 to 11 days by MTT assay; conditions: read-out: Activity
HOP-92 [12] = assay: Cytotoxicity against human HOP92 cells assessed as cell growth at 0.1 uM after 1 to 11 days by MTT assay; conditions: read-out: Activity
HL-60(TB) [13] = assay: Cytotoxicity against human HL-60(TB) cells assessed as cell growth at 1 mM after 1 to 11 days by MTT assay; conditions: read-out: Activity
TK-10 = assay: Cytotoxicity against human TK10 cells assessed as cell growth at 1 uM after 1 to 11 days by MTT assay; conditions: read-out: Activity
A498 [14] = assay: Cytotoxicity against human A498 cells assessed as cell growth at 1 mM after 1 to 11 days by MTT assay; conditions: read-out: Activity
HT-29 = assay: Cytotoxicity against human HT-29 cells assessed as cell growth at 100 uM after 1 to 11 days by MTT assay; conditions: read-out: Activity
A549 [15] = assay: Cytotoxicity against human A549 cells assessed as cell growth at 100 uM after 1 to 11 days by MTT assay; conditions: read-out: Activity
HOP-62 = assay: Cytotoxicity against human HOP62 cells assessed as cell growth at 10 uM after 1 to 11 days by MTT assay; conditions: read-out: Activity
MCF7 [16] = assay: Cytotoxicity against human MCF7 cells after 1 to 11 days by MTT assay
SNB-19 [17] = assay: Cytotoxicity against human SNB19 cells after 1 to 11 days by MTT assay
UACC-62 = assay: Cytotoxicity against human UACC62 cells assessed as cell growth at 100 uM after 1 to 11 days by MTT assay; conditions: read-out: Activity
SR = assay: Cytotoxicity against human SR cells assessed as cell growth at 100 uM after 1 to 11 days by MTT assay; conditions: read-out: Activity
A498 [18] = assay: Cytotoxicity against human A498 cells assessed as cell growth at 10 uM after 1 to 11 days by MTT assay; conditions: read-out: Activity
SNB-75 [19] = assay: Cytotoxicity against human SNB75 cells after 1 to 11 days by MTT assay
MCF7 [20] = assay: Cytotoxicity against human MCF7 cells assessed as cell growth at 1 mM after 1 to 11 days by MTT assay; conditions: read-out: Activity
RPMI-8226 = assay: Cytotoxicity against human RPMI8226 cells after 1 to 11 days by MTT assay
U-251 [21] = assay: Cytotoxicity against human U251 cells assessed as cell growth at 1 uM after 1 to 11 days by MTT assay; conditions: read-out: Activity
OVCAR-4 = assay: Cytotoxicity against human OVCAR4 cells assessed as cell growth at 100 uM after 1 to 11 days by MTT assay; conditions: read-out: Activity
SN12C = assay: Cytotoxicity against human SN12C cells assessed as cell growth at 1 mM after 1 to 11 days by MTT assay; conditions: read-out: Activity
NCI-H522 = assay: Cytotoxicity against human NCI-H522 cells assessed as cell growth at 100 uM after 1 to 11 days by MTT assay; conditions: read-out: Activity
MDA-MB-468 = assay: Cytotoxicity against human MDA-MB-468 cells assessed as cell growth at 1 mM after 1 to 11 days by MTT assay; conditions: read-out: Activity
HL-60(TB) [22] = assay: Cytotoxicity against human HL-60(TB) cells after 1 to 11 days by MTT assay
[23] = Cytotoxicity against human Hs 578T cells assessed as cell growth at 0.1 uM after 1 to 11 days by MTT assay; conditions: read-out: Activity
SNB-19 [24] = assay: Cytotoxicity against human SNB19 cells assessed as cell growth at 1 mM after 1 to 11 days by MTT assay; conditions: read-out: Activity
A549 [25] = assay: Cytotoxicity against human A549 cells assessed as cell growth at 10 uM after 1 to 11 days by MTT assay; conditions: read-out: Activity
COLO 205 [26] = assay: Cytotoxicity against human COLO205 cells assessed as cell growth at 1 mM after 1 to 11 days by MTT assay; conditions: read-out: Activity
KM12 = assay: Cytotoxicity against human KM12 cells assessed as cell growth at 10 uM after 1 to 11 days by MTT assay; conditions: read-out: Activity
U-251 [27] = assay: Cytotoxicity against human U251 cells assessed as cell growth at 0.1 uM after 1 to 11 days by MTT assay; conditions: read-out: Activity
LOX IMVI [28] = assay: Cytotoxicity against human LOXIMVI cells after 1 to 11 days by MTT assay
LOX IMVI [29] = assay: Cytotoxicity against human LOXIMVI cells assessed as cell growth at 1 mM after 1 to 11 days by MTT assay; conditions: read-out: Activity
[30] = read-out: LC50 (the source's name)

In the case of `O=C1Nc2ncccc2/C1=C1/Nc2ccccc2C1=O`, the growth at 10 µM (HCC 2998 [1]) is reported as 25.3%.
In the case of `O=C1Nc2ncccc2/C1=C1/Nc2ccccc2/C1=N\O`, the GI50 (ACHN [2]) is reported as 2.68 µM, the TGI (ACHN [2]) is reported as > 100 µM and the CC50 (ACHN [2]; [30]) is reported as > 100 µM. For the same compound, the growth at 100 µM (HOP-92 [3]) was 36%, the GI50 (A549 [4]) was 3.5 µM and the TGI (A549 [4]) was > 100 µM. The CC50 (A549 [4]; [30]) was > 100 µM, the growth at 100 µM [5] was 4% and the GI50 (M14) was 7.95 µM. For the same compound, the TGI (M14) was > 100 µM, the CC50 (M14; [30]) was > 100 µM and the growth at 10 µM [6] was 78%. It also gave a growth at 1 µM (SNB-75 [7]) of 90%, a growth at 100 µM (Malme-3M) of 13% and a growth at 100 µM (COLO 205 [8]) of 59%. For the same compound, the growth at 0.1 µM (HCC 2998 [9]) was 93%, the growth at 1000 µM (786-0) was 39% and the growth at 1000 µM (IGROV-1) was 12%. The growth at 1000 µM (A549 [10]) was 13%, the growth at 100 µM (ACHN [11]) was 21% and the growth at 0.1 µM (HOP-92 [12]) was 102%. It also gave a growth at 1000 µM (HL-60(TB) [13]) of 7%, a growth at 1 µM (TK-10) of 104% and a growth at 1000 µM (A498 [14]) of 43%. The growth at 100 µM (HT-29) was 81%, the growth at 100 µM (A549 [15]) was 15% and the growth at 10 µM (HOP-62) was 105%. For the same compound, the GI50 (MCF7 [16]) was 15.9 µM, the TGI (MCF7 [16]) was > 100 µM and the CC50 (MCF7 [16]; [30]) was > 100 µM. The GI50 (SNB-19 [17]) was > 100 µM, the TGI (SNB-19 [17]) was > 100 µM and the CC50 (SNB-19 [17]; [30]) was > 100 µM. It also gave a growth at 100 µM (UACC-62) of 27%, a growth at 100 µM (SR) of 29% and a growth at 10 µM (A498 [18]) of 63%. The GI50 (SNB-75 [19]) was 3.13 µM, the TGI (SNB-75 [19]) was > 100 µM and the CC50 (SNB-75 [19]; [30]) was > 100 µM. For the same compound, the growth at 1000 µM (MCF7 [20]) was 41%, the GI50 (RPMI-8226) was 1.89 µM and the TGI (RPMI-8226) was 62.5 µM. The CC50 (RPMI-8226; [30]) was > 100 µM, the growth at 1 µM (U-251 [21]) was 97% and the growth at 100 µM (OVCAR-4) was 48%. The growth at 1000 µM (SN12C) was 36%, the growth at 100 µM (NCI-H522) was 61% and the growth at 1000 µM (MDA-MB-468) was 13%. The GI50 (HL-60(TB) [22]) was 5.23 µM, the TGI (HL-60(TB) [22]) was > 100 µM and the CC50 (HL-60(TB) [22]; [30]) was > 100 µM. For the same compound, the growth at 0.1 µM [23] was 97%, the growth at 1000 µM (SNB-19 [24]) was 83% and the growth at 10 µM (A549 [25]) was 91%. It also gave a growth at 1000 µM (COLO 205 [26]) of 23%, a growth at 10 µM (KM12) of 45% and a growth at 0.1 µM (U-251 [27]) of 97%. The GI50 (LOX IMVI [28]) was 5.17 µM, the TGI (LOX IMVI [28]) was > 100 µM and the CC50 (LOX IMVI [28]; [30]) was > 100 µM. For the same compound, the growth at 1000 µM (LOX IMVI [29]) was 30%.
